# Test results from patent US7368605B2, “Variously substituted derivatives of guanidine, and their use as medicines with anti-diabetes and/or anti-obesity activity” (Sigma-Tau Industrie Farmaceutiche Riunite S.p.A., priority 2002, dated 2008).
# Like-named read-outs stand apart in the source and are kept apart here.
# Experiments:
# [1] = tested on: ob/ob mouse; test: Reduction in hyperglycaemia in the ob/ob mouse (laboratory experiments); conditions: oral dose of 600 mg/kg/day
# [2] = tested on: C57BL/KsJ db/db mice; test: Consumption of water and food by db/db mice; conditions: male db/db mice, control = 100
# Description: The C57BL/KsJ db/db mice used in the experiments reported here below were supplied by Jackson Lab (via Ch. River).
# [3] = tested on: rat; conditions: oral administration; cited from earlier work
# [4] = tested on: C57BL/KsJ db/db mice; test: Serum glucose levels in db/db mice after 4 days of subcutaneous treatment; conditions: male db/db mice, postabsorption conditions, 8 hours after last treatment, control = 100
# [5] = tested on: KKAy mouse; conditions: oral dose of 900 mg/kg/day; cited from earlier work
# [6] = tested on: diabetic patients; conditions: cited from earlier work
# [7] = 100 mg/kg s.c. twice daily for 4 days
# [8] = 25 mg/kg s.c. twice daily for 4 days
SMILES,reduction in hyperglycaemia [1],"Food % (consumption, variation vs Control) [2, 7]","Water % (consumption, variation vs Control) [2, 7]",LD50 [3],"Glucose % (variation vs Control) [4, 7]",reduction in hyperglycaemia [5],reduction of hyperglycaemia ([6]; in combination with sulphonylureas),reduction of hyperglycaemia ([6]; monotherapy after the failure of diet and physical exercise),"Food % (consumption, variation vs Control) [2, 8]","Water % (consumption, variation vs Control) [2, 8]","Glucose % (variation vs Control) [4, 8]"
CN(C)C(=N)N=C(N)N [Metformin],22%,119%,113%,1000 mg/kg,104%,50%,25%,20-30%,,,
"CC(C)=CCNC(=N)NCCCCN.CS(=O)(=O)O [ST2369, N-(4-aminobutyl)-N′-(γ,γ-dimethylallyl)guanidine methane sulphonate]",,,,,,,,,63%,47%,
"CC(C)=CCNC(=N)NCCCCCCN.CS(=O)(=O)O [ST2370, N-(γ,γ-dimethylallyl)-N′-(6-aminohexyl)guanidine methane sulphonate]",,,,,,,,,81%,47%,69 □ %
